ChEMBL document CHEMBL1159075, “The chemical synthesis and antibiotic activity of a diverse library of 2-aminobenzimidazole small molecules against MRSA and multidrug-resistant A. baumannii” (Bioorg Med Chem, 2010)
In brackets after ≈: the same amount, converted by molar mass.

Experiments:
[1] = test system: Staphylococcus aureus; test: Antibacterial activity against methicillin-resistant Staphylococcus aureus BAA-44 after 16 to 20 hrs by microdilution susceptibility test; format: functional
[2] = test system: Acinetobacter baumannii; test: Antibacterial activity against Acinetobacter baumannii UH8407 after 16 to 20 hrs by microdilution susceptibility test; format: functional
[3] = test system: Acinetobacter baumannii; test: Antibacterial activity against Acinetobacter baumannii AB0043 after 16 to 20 hrs by microdilution susceptibility test; format: functional
[4] = test system: Staphylococcus aureus; test: Antibacterial activity against Staphylococcus aureus ATCC 29213 after 16 to 20 hrs by microdilution susceptibility test; format: functional
[5] = test system: Acinetobacter baumannii; test: Antibacterial activity against Acinetobacter baumannii 3304 after 16 to 20 hrs by microdilution susceptibility test; format: functional
[6] = test system: Acinetobacter baumannii; test: Antibacterial activity against Acinetobacter baumannii ATCC 19606 after 16 to 20 hrs by microdilution susceptibility test; format: functional; conditions: ATCC 19606 = CIP 70.34 = JCM 6841
[7] = test system: Staphylococcus aureus; test: Antibacterial activity against Staphylococcus aureus ATCC 29740 after 16 to 20 hrs by microdilution susceptibility test; format: functional
[8] = test system: Acinetobacter baumannii; test: Antibacterial activity against multidrug-resistant Acinetobacter baumannii BAA-1605 after 16 to 20 hrs by microdilution susceptibility test; format: functional
[9] = test system: Staphylococcus aureus; test: Antibacterial activity against Staphylococcus aureus ATCC 25923 after 16 to 20 hrs by microdilution susceptibility test; format: functional
[10] = Induction of pore-formation in synthetic 1-palmitoyl-2-oleoyl-sn-glycero-3-phosphocholine vesicles assessed as dye leakage at 25 uM; format: physicochemical
[11] = Toxicity in defibrinated sheep RBC assessed as hemolysis at 25 uM by UV spectrometry; format: cell-based, Ovis aries, Erythrocyte; conditions: defibrinated sheep red blood cells, read-out: Activity
[12] = Induction of pore-formation in synthetic 1-palmitoyl-2-oleoyl-sn-glycero-3-phosphoglycerol vesicles assessed as dye leakage at >500 uM; format: physicochemical
[13] = Induction of pore-formation in synthetic 1-palmitoyl-2-oleoyl-sn-glycero-3-phosphoglycerol vesicles assessed as dye leakage at 25 uM; format: physicochemical
[14] = test system: Staphylococcus aureus; test: Antibacterial activity against methicillin-resistant Staphylococcus aureus BAA-44 at […] uM after 16 to 20 hrs by microdilution susceptibility test; format: functional
[15] = test system: Staphylococcus aureus; test: Ratio of MBC to MIC for Staphylococcus aureus BAA-44 after 16 to 20 hrs by microdilution susceptibility test

Row | Molecule | MIC [2] [µM] | MIC [3] [µM] | MIC [4] [µM] | MIC [5] [µM] | MIC [6] [µM] | MIC [7] [µM] | MIC [8] [µM] | MIC ([1]; Staphylococcus aureus, BAA-44) [µM] | MIC [9] [µM] | further results
1 | GENTAMICIN | > 400 | 200 | 0.391 | > 400 | 100 | 6.2 | > 400 | – | – | MIC [1]: 200 µM
2 | CCCCCCCCCC(=O)Nc1ccc2[nH]c(N)nc2c1 | 25 (≈ 7.56 µg/mL) | 25 (≈ 7.56 µg/mL) | 12.5 (≈ 3.78 µg/mL) | 25 (≈ 7.56 µg/mL) | 25 (≈ 7.56 µg/mL) | 12.5 (≈ 3.78 µg/mL) | 25 (≈ 7.56 µg/mL) | 25 (≈ 7.56 µg/mL) | 25 (≈ 7.56 µg/mL) | –
3 | Nc1nc2cc(NS(=O)(=O)c3ccc4ccccc4c3)ccc2[nH]1 | – | – | 100 (≈ 33.8 µg/mL) | – | – | – | – | 100 (≈ 33.8 µg/mL) | – | –
4 | C[C@@H](O)[C@H]1C(=O)N2C(C(=O)O)=C(SCCNC=N)C[C@H]12 [IMIPENEM ANHYDROUS] | 3.12 (≈ 0.935 µg/mL) | 50 (≈ 15 µg/mL) | – | 200 (≈ 59.9 µg/mL) | 0.391 (≈ 0.117 µg/mL) | – | 50 (≈ 15 µg/mL) | – | – | –
5 | CN(C)[C@@H]1C(O)=C(C(N)=O)C(=O)[C@@]2(O)C(O)=C3C(=O)c4c(O)cccc4[C@@](C)(O)[C@H]3C[C@@H]12 [TETRACYCLINE] | > 400 | 6.25 (≈ 2.78 µg/mL) | – | 25 (≈ 11.1 µg/mL) | 3.13 (≈ 1.39 µg/mL) | – | > 400 | – | – | –
6 | CCCCCc1ccc(C(=O)Nc2ccc3[nH]c(N)nc3c2)cc1.Cl | 25 | 12.5 | 12.5 | 25 | 25 | 6.25 | 12.5 | 12.5 | 12.5 | MBC50 [1]: 5.88 µM; MBC90 [1]: 11.15 µM; MBC ([1]; Staphylococcus aureus, BAA-44): 25 µM; Activity [10]: 9%; hemolysis at 25 µM [11]: < 1%; Activity [12]: > 50%; Activity [13]: 16%; Activity [14]: 99.15%; Ratio [15]: 2
7 | CCCCc1cn(-c2ccc(C(=O)Nc3ccc4[nH]c(N)nc4c3)cc2)nn1 | – | – | – | – | – | – | – | > 400 | – | –
8 | CCCCCCCCCCCCCCCCCC(=O)Nc1ccc2[nH]c(N)nc2c1 | > 400 | > 400 | – | > 400 | > 400 | – | > 400 | – | – | –
9 | CN[C@H](CC(C)C)C(=O)N[C@H]1C(=O)N[C@@H](CC(N)=O)C(=O)N[C@H]2C(=O)N[C@H]3C(=O)N[C@H](C(=O)N[C@H](C(=O)O)c4cc(O)cc(O)c4-c4cc3ccc4O)[C@H](O)c3ccc(c(Cl)c3)Oc3cc2cc(c3O[C@@H]2O[C@H](CO)[C@@H](O)[C@H](O)[C@H]2O[C@H]2C[C@](C)(N)[C@H](O)[C@H](C)O2)Oc2ccc(cc2Cl)[C@H]1O [VANCOMYCIN] | – | – | 0.391 (≈ 0.567 µg/mL) | – | – | 0.195 (≈ 0.283 µg/mL) | – | 0.391 (≈ 0.567 µg/mL) | 0.391 (≈ 0.567 µg/mL) | –
10 | CC1(C)S[C@@H]2[C@H](NC(=O)[C@H](N)c3ccccc3)C(=O)N2[C@H]1C(=O)O [AMPICILLIN] | > 400 | > 400 | – | > 400 | > 400 | – | > 400 | – | – | –
11 | Nc1nc2cc(NC(=O)c3ccc(-c4ccccc4)cc3)ccc2[nH]1 | – | > 400 | > 400 | > 400 | > 400 | > 400 | – | > 400 | > 400 | –
12 | [N-]=[N+]=Nc1ccc(C(=O)Nc2ccc3[nH]c(N)nc3c2)cc1 | – | – | – | – | – | – | – | 400 (≈ 117 µg/mL) | – | –
13 | CCCCCCCCCCCC(=O)Nc1ccc2[nH]c(N)nc2c1 | 25 (≈ 8.26 µg/mL) | 12.5 (≈ 4.13 µg/mL) | 25 (≈ 8.26 µg/mL) | 12.5 (≈ 4.13 µg/mL) | 25 (≈ 8.26 µg/mL) | 12.5 (≈ 4.13 µg/mL) | 12.5 (≈ 4.13 µg/mL) | 12.5 (≈ 4.13 µg/mL) | 50 (≈ 16.5 µg/mL) | –
14 | CCCCCCc1ccc(C(=O)Nc2ccc3[nH]c(N)nc3c2)cc1 | 25 (≈ 8.41 µg/mL) | 12.5 (≈ 4.21 µg/mL) | 12.5 (≈ 4.21 µg/mL) | 50 (≈ 16.8 µg/mL) | 50 (≈ 16.8 µg/mL) | 6.25 (≈ 2.1 µg/mL) | 12.5 (≈ 4.21 µg/mL) | 12.5 (≈ 4.21 µg/mL) | 12.5 (≈ 4.21 µg/mL) | –
